These results are taken from PubChem BioAssay (NCI).

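Dose response: 5 concentrations. Exposure: 48 h. Format: 96-well plates. Endpoint: linear interpolation; highest concentration if not reached. GI50 marks 50% less growth. TGI denotes the concentration required for complete inhibition of growth.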

What all share (experiment): inhibition of tumour cell growth, NCI panel, 48 h
The test system of assay [1] is LOX IMVI melanoma.
Assay [2] concerns CCRF-CEM leukemia.
Assay [3] has as its system NCI-H23 lung.
For assay [4], the system named is RXF 393 renal.
In assay [5] the test system is SK-MEL-28 melanoma.
The subject of assay [6] is UO-31 renal.
Assay [7] concerns T-47D breast.
The test system of assay [8] is NCI-H226 lung.
Assay [9] has as its system MOLT-4 leukemia.
Assay [10] has as its system A498 renal.

In the case of `O=C(CC1Sc2ccccc2NC1=O)NNc1ccc(F)cc1` (centres undefined), the GI50 was 4.51 µM in [1]; > 100 µM in assay [2]; > 100 µM in [3]; > 100 µM in assay [4]; > 100 µM in assay [5]; 7.47 µM in assay [6]. Also, the GI50 in assay [7] was 14.6 µM; in assay [8], 41.3 µM; in [9], 5.52 µM; in [10] it was 83.5 µM. Also, the TGI in [1], in assay [2], in assay [3], in assay [4], in assay [5] and in assay [6] was > 100 µM in each case. Besides, the TGI in assay [7], in [8], in assay [9] and in assay [10] was > 100 µM throughout.

As for `C/C=C(\C)C(=O)O[C@@H]1C=CC(=O)O[C@H]1CNC(=O)[C@H](C)O`, the GI50 in assay [1] was 15.9 µM; in assay [2], 6.1 µM; in assay [3], 25.6 µM; in [4], 18.3 µM; in assay [5], 16.1 µM; in assay [6], 21.3 µM. In addition, the GI50 in assay [7] was 21.9 µM; in [8], 28.9 µM; in [10], 21.2 µM. The TGI in [1] is 31.3 µM; in assay [2], 26.2 µM; in assay [3], > 75.4 µM; in [4], 42.9 µM; in assay [5], 35.8 µM; in [6], 59.1 µM. Further, the TGI is > 66.8 µM in [7], > 81.4 µM in assay [8], 5.35 µM in assay [9] and 53 µM in assay [10].

With `Cc1ccc(C2C3Cc4ccccc4C3=NN2c2ccc(S(=O)(=O)NC(=O)Nc3ccccc3)cc2)cc1` (centres undefined), the GI50 in assay [1] is 13.5 µM; in assay [2], 17.8 µM; in assay [3] it was 14.9 µM; in [4], 16 µM; in assay [5] it was 22.6 µM; in assay [6] it was 11.6 µM. Besides, the GI50 was 36.8 µM in [7], 15.9 µM in assay [8], 8.88 µM in assay [9] and 15.6 µM in assay [10]. For the same compound, the TGI in assay [1] amounted to 27.9 µM; in assay [2], 46.6 µM; in [3], 31.9 µM; in [4] it was 38.5 µM; in assay [5], 52.5 µM; in [6] it was 28.4 µM. Moreover, the TGI in assay [7] was > 100 µM; in assay [8] it was 49.2 µM; in assay [9], 34.4 µM; in assay [10], 30.7 µM.

Consider `O=C(O)c1[nH]c2c([N+](=O)[O-])cc([N+](=O)[O-])cc2c1C(=O)O`, for which the TGI in [1], in [2], in assay [3], in assay [4], in assay [5] and in assay [6] was > 100 µM throughout. Also, the TGI in assay [7], in assay [8], in [9] and in assay [10] was > 100 µM throughout.

As to `O=C(COc1cccc(/C=C2\Oc3ccc4ccccc4c3C2=O)c1)c1ccc([N+](=O)[O-])cc1`, the GI50 was 7.5 µM in assay [1]; 3.96 µM in assay [2]; 21 µM in assay [3]; 10.6 µM in assay [4]; 48.4 µM in [5]; 36.7 µM in [6]. In addition, the GI50 in [7] is 12.6 µM; in assay [8], 16.1 µM; in assay [9], 13.3 µM; in assay [10], > 100 µM. Besides, the TGI was 20.5 µM in assay [1]; 17.4 µM in assay [2]; 80.8 µM in [3]; 25.2 µM in assay [4]; > 100 µM in assay [5]; > 100 µM in assay [6]. The TGI in assay [7] was 38.3 µM; in [8], 37.8 µM; in assay [9], 38.6 µM; in assay [10], > 100 µM.

In the case of `Nc1nc(N)c(-c2ccc(Cl)c(Cl)c2)c(CP(Cl)(Cl)(Cl)Br)n1`, the GI50 in assay [1] was 2.72 µM; in assay [2] it was 8.13 µM; in [3], 19.6 µM; in assay [4], 18.1 µM; in [5], 20.6 µM; in [6] it was 17.5 µM. The GI50 is 34.1 µM in assay [7], 99.7 µM in [8], 28.6 µM in assay [9] and 22.9 µM in assay [10]. For the same compound, the TGI in [1], in [2], in assay [3], in assay [4], in assay [5] and in assay [6] was > 100 µM in each case. The TGI in assay [7], in [8], in assay [9] and in assay [10] was > 100 µM in each case.

Take `CCOC(=O)c1cc2c(n1Cc1cc(OC)cc(OC)c1)-c1oncc1CC2`: the GI50 is 0.593 µM in [1]; 0.215 µM in [2]; 0.307 µM in assay [3]; 0.136 µM in [4]; 0.25 µM in assay [5]; 6.37 µM in assay [6]. Besides, the GI50 in assay [7] is 31.1 µM; in assay [8], 2.75 µM; in assay [9], 0.525 µM; in [10], 0.0532 µM. Further, the TGI in assay [1], in assay [2], in assay [3], in [4], in assay [5] and in [6] was > 100 µM in each case. For the same compound, the TGI in [7] is > 100 µM; in assay [8] it was > 100 µM; in assay [9], > 100 µM; in assay [10], 0.779 µM.

Regarding `CCC(C(=O)[C@@H](C)[C@@H](O)[C@H](C)[C@@H]1O[C@@H]([C@@H](CC)C(=O)ONC(=O)c2ccccc2)CC[C@@H]1C)[C@H]1O[C@]2(C=CC(=O)[C@]3(CC[C@@](C)([C@H]4CC[C@](O)(CC)[C@H](C)O4)O3)O2)[C@H](C)C[C@@H]1C` (some centres undefined), the GI50 in [1] is 0.316 µM; in [2] it was 0.12 µM; in assay [3], 0.175 µM; in assay [4], 0.0957 µM; in assay [5], 1.6 µM; in assay [6], 0.403 µM. The GI50 in [7] is 0.0463 µM; in assay [8] it was 0.749 µM; in [9], 0.729 µM; in assay [10], 0.0851 µM. In addition, the TGI in assay [1] worked out at 1.84 µM; in assay [2] it was 1.95 µM; in [3], 2.08 µM; in assay [4], 1.74 µM; in [5], 8.57 µM; in assay [6], 1.79 µM. The TGI in [7] amounted to 2.98 µM; in [8], 3.56 µM; in assay [9], 3.32 µM; in assay [10], 0.731 µM.
